Values of other authors, collected in patent publication US20130225560A1, “Treatment of Cognitive Disorders with Certain Alpha-7 Nicotinic Acid Receptor Agonists in Combination with Acetylcholinesterase Inhibitors” (priority 2010, published 2013).

Assays:
[1] = system: other nicotinic receptors
alpha-7 receptor [2] = molecular target: T1, alpha-7 receptor (Homo sapiens, UniProt P36544)
alpha-7 receptor [3] = molecular target: T1, alpha-7 receptor; remark: listed apart in the source
[4] = system: murine model that exhibits aspects of schizophrenia; details: alone and in combination with clozapine; Hauser et al. 2009

T1 sequence (P36544 23-502): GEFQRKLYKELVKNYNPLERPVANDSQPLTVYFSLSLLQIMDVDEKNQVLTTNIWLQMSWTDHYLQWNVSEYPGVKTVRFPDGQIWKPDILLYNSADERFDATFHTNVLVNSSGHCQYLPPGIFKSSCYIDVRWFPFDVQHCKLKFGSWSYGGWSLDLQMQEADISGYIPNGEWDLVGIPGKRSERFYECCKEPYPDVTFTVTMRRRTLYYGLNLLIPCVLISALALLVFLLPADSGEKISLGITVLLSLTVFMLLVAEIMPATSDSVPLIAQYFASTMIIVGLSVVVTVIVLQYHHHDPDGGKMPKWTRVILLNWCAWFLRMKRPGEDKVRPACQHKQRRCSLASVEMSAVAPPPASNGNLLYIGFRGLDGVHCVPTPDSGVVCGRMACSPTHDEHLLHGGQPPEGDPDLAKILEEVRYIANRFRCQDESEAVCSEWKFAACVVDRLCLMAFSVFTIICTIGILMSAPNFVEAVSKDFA

For `O=C(NC1C2CCN(CC2)C1Cc1cccnc1)c1cc2ccccc2o1` (centres unmarked) [TC-5619, N-[2-(pyridin-3-ylmethyl)-1-azabicyclo[2.2.2]oct-3-yl]-1-benzofuran-2-carboxamide], the “activity at other nicotinic receptors” value [1] is given as “little or no activity”, the “agonist activity at the alpha-7 receptor” value (alpha-7 receptor [2]) is given as “full agonist” and the “affinity for the alpha-7 receptor” value (alpha-7 receptor [3]) is given as “very high affinity”. For the same compound, the “impaired pre-pulse inhibition (PPI), models positive symptoms” value [4] was “correct impaired pre-pulse inhibition (PPI)” and the “impaired social behavior, models negative symptoms” value [4] was “correct impaired pre-pulse inhibition (PPI) and social behavior”.
